Reference: patent US4929602A, “Method of inhibiting platelet dependent arterial thrombosis” (Scripps Clinic and Research Foundation, priority 1988, dated 1990)

How the values were obtained:
[1] = Blood and plasma determinations during dialyzer exposure (APTT, FPA, fibrinogen, cell counts, bleeding time, PF4, βTG, C3a); format: in vivo, baboon
Protocol: PPACK or standard heparin (from porcine intestinal mucosal, Invenex Laboratories, Chagrin Falls, Ohio) was infused into the arterial limb of the vascular shunt immediately proximal to the dialyzer.
Blood cell counts (platelets, white blood cells, and red blood cells) were performed on disodium EDTA anticoagulated whole blood using a J. T. Baker whole blood analyzer Model 810 (Allentown, Pa.). Hanson et al., J. Clin. Invest. 75:1591-99 (1985); and Hanson et al., Arteriosclerosis, 5:595-603 (1985). Standard template bleeding times, were performed on the shave volar surface of the forearm in a manner as described in Harker et al., New. Eng. J. Med., 287:155-59 (1972) and Malpass et al., Blood, 57:736-40 (1981). Bleeding times were done in duplicate and averaged. Commercially available radioimmunometric assays were carried out to measure plasma levels of platelet factor 4 (PF4) (Abbott Laboratories, North Chicago, Ill.), β-thromboglobulin (βTG) (Amersham Corporation, Arlington Heights, Ill.), fibrinopeptide A (FPA) (MICRO USA Inc., New York, N.Y.) and activated complement C3 antigen (C3a) (Amersham Corp.). Blood samples for these plasma assays were collected, processed and determined as described in the procedures of Example 1 and in Malpass et al., ibid. and Hanson et al., Arterosclerosis, 5:595-603 (1985). […] (APTT) were performed using a standard method (Activated PTT reagent, Ortho Diagnostics, Raritain, N.J.). A fibrometer (Fibrosystem, Division of Becton and Dickinson and Co., Cockeysville, […].) was used for endpoint clot detection as described in Biggs, R., Human Blood Coagulation, Haemostasis and Thrombosis, Oxford, Blackwell Scientific, pages 657-750 (1976). Fibrinogen was determined by a total clottable protein method described by Jacobsson K., Scand. J. Clin. Lab. Invest., 7(Suppl. 14):9-54 (1955).

[2] = Plasma levels of PPACK (antithrombin activity) in carotid endarterectomy study; format: in vivo, baboon; details: iv
[3] = Template bleeding time and platelet count in carotid endarterectomy study (Example 2B); format: in vivo, baboon; details: treated animals, day 3
Protocol: […] The mean platelet count was 318±70×10^3 /μl in the control group and 296±53×10^3 /μl in the treated group.
Bleeding time measurements were performed in duplicate on the shaved volar surface of the forearm, using the standard template method as previously described for studies in baboons. Harker et al., Blood, 58:824-834 (1980).

[4] = Collen et al., cited from earlier work
[5] = Plasma activity levels of heparin (anti-Xa) and PPACK (antithrombin) during dialyzer study; format: in vivo, baboon; details: for level at 0.5 h / level at 1 h: plasma, 100 nmol/kg per min, Plasma PPACK; for level at 0.5 h: 30 min; for level at 1 h: 60 min
Protocol: Samples were centrifuged (2000×g, for 5 min) immediately after collection and the recovered plasma was frozen until assay. […] In some studies PPACK levels were determined at three sites: (i) systemic (ii) immediately proximal to the dialyzer but distal to the site of the PPACK infusion, and (iii) immediately distal to the dialyzer. Levels of heparin activity were determined by measuring the potentiating effect of heparin of plasma anti-Xa activity using a synthetic chromogenic substrate (Stachrom Heparin, Stago, France). Teien et al., Thrombo Research, 10:399-410 (1977).

[6] = PPACK concentration in the plasma during infusion (graft study); format: in vivo, baboon; details: intravenous infusion at 100 nmol/kg/min (about 15 minutes)
Excerpt: Methods for determining the concentration of a Formula (1) peptide in the plasma are well known in the art, a preferred method being that described by Collen et al., J. Lab. Clin. Med., 99:76-83 (1982), whose disclosures are incorporated herein by reference.

Hemostatic Function = test system: Hemostatic Function; set-up: species or system baboon; details: in vivo
Protocol: After continuous infusion of a | given dose for 15 minutes (min.), the template bleeding time measurement | was begun and blood was drawn for thrombin time determinations. Escalatio | to the next dose was undertaken only after the bleeding time measurement | had been completed. The results are expressed as means ± one standard | deviation.

[7] = test system: primate model of vascular graft thrombosis; details: aspirin 32.5 mg/kg/day orally 2 hours prior to graft placement; previous studies; cited from earlier work

| platelet count ([1]; during dialyzer exposure) | C3a peak level ([1]; during dialyzer use) | white blood cell count, early fall ([1]; during dialyzer use) | level at 1.5 h ([2]; 100 nmol/kg/min, 90 min after infusion) | level at 0.5 h ([2]; 30 min after infusion, 100 nmol/kg/min for about 1 hour) | Platelet counts [3] | PPACK systemic plasma level ([5]; 100 nmol/kg per min infused proximal to the dialyzer) | level at 0.5 h ([5]; Postdialyzer) | level at 1 h ([5]; Postdialyzer) | level at 0.5 h ([5]; Predialyzer) | level at 1 h ([5]; Predialyzer) | level at 0.5 h ([5]; Systemic) | level at 1 h ([5]; Systemic) | PPACK concentration in the plasma [6] | platelet count (Hemostatic Function) | Structure (SMILES) | T50 removal rate from the circulation [4] | half-life of PPACK's ability to inhibit fibrin formation ([4]; rabbits) | effect on heart rate or blood pressure (Hemostatic Function) | effect on vascular graft 111In-platelet deposition [7] |
| --- | --- | --- | --- | --- | --- | --- | --- | --- | --- | --- | --- | --- | --- | --- | --- | --- | --- | --- | --- |
| 401 ± 17 × 10^3 /μL | 1989 ± 360 ng/mL | 5,900±810 cells/ul | 1120 ± 270 ng/mL | 3720 ± 610 ng/mL | 296±53 ×10^3 /μl | 1.5 ± 0.06 µg/mL | 3900 ± 500 ng/mL | 4100 ± 1200 ng/mL | 3050 ± 550 ng/mL | 3650 ± 650 ng/mL | 1400 ± 400 ng/mL | 1600 ± 500 ng/mL | 1 to 2 µg/mL | 269 ± 54 × 10^9 /L | N=C(N)NCCC[C@H](NC(=O)[C@@H]1CCCN1C(=O)[C@H](N)Cc1ccccc1)C(=O)CCl [PPACK, D-phenylalanyl-L-propyl-L-arginyl-chloromethyl ketone] | less than 3 min | about 2.9 minutes | No effect |  |
|  |  |  |  |  |  |  |  |  |  |  |  |  |  |  | CC(=O)Oc1ccccc1C(=O)O [aspirin] |  |  |  | neither aspirin (32.5 mg/kg/day given orally 2 hours prior to graft placement) not aspirin combined with heparin (100 units/kg) affected |
